Test results published in patent publication US20080009418A1, “Selective Inhibitors” (Alchemia LTD., priority 2004, published 2008).

Assays:
Human δ-opioid (DOP) = target: T1, Human δ-opioid (DOP) (Homo sapiens, UniProt P41143); test: Radioligand binding, human δ-opioid (DOP) membranes, FlashPlate, [3H]-Bremazocine; settings: compound at 10 μM; [3H]-Bremazocine, human DOP membranes
T1 construct: purchased Perkin Elmer Biosignal
Procedure, shortened: (§1)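 Cloned human receptor membranes were coated onto FlashPlate wells and incubated with radioligand and compound (added from a 0.5 mM DMSO daughter plate) for 1 hour at room temperature in the dark. Scintillation counting gave percent inhibition, with DMSO defining total and reference ligand defining non-specific binding.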

Human μ-opioid (MOP) = target: T2, Human μ-opioid (MOP) (Homo sapiens, UniProt P35372); test: Radioligand binding, human μ-opioid (MOP) membranes, FlashPlate, [3H]-Naloxone; settings: compound at 10 μM; [3H]-Naloxone, human MOP membranes
T2 construct: purchased Perkin Elmer Biosignal
T2 sequence (P35372 whole entry): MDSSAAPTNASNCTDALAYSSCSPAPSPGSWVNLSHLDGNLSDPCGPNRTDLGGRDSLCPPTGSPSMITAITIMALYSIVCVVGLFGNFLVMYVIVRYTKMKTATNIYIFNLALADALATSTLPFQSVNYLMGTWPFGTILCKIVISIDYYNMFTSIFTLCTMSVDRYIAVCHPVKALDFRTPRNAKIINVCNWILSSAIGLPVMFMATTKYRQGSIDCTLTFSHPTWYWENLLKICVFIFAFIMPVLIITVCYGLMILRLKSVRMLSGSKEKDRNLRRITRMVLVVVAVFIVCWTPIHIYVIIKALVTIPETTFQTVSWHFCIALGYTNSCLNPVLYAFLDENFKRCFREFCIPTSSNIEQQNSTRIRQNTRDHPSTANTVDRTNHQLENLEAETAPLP
Procedure, shortened: as §1

[1] = target: T3, Human melanin-concentrating hormone (MCH1) (Homo sapiens, UniProt Q99705); test: Radioligand binding, human melanin-concentrating hormone MCH1 membranes, FlashPlate, [125I]-S36057; settings: compound at 10 μM; [125I]-S36057, human MCH1 membranes
T3 construct: purchased Perkin Elmer Biosignal
T3 sequence (Q99705 whole entry): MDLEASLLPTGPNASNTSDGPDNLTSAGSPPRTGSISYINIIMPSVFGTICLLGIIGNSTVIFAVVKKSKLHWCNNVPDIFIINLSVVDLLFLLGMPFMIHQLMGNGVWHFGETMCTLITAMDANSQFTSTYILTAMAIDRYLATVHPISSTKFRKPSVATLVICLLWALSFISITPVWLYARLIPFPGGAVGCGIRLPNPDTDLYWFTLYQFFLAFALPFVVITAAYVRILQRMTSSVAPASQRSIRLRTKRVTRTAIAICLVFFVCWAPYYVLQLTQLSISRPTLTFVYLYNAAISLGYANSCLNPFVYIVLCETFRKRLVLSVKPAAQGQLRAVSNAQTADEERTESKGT
Procedure, shortened: as §1

Human neurokinin (NK1) = target: T4, Human neurokinin (NK1) (Homo sapiens, UniProt P25103); test: Radioligand binding, human neurokinin NK1 membranes, filtration, [125I]-Substance P; settings: compound at 10 μM; [125I]-Substance P, human NK1 membranes
T4 construct: purchased Perkin Elmer Biosignal
T4 sequence (P25103 whole entry): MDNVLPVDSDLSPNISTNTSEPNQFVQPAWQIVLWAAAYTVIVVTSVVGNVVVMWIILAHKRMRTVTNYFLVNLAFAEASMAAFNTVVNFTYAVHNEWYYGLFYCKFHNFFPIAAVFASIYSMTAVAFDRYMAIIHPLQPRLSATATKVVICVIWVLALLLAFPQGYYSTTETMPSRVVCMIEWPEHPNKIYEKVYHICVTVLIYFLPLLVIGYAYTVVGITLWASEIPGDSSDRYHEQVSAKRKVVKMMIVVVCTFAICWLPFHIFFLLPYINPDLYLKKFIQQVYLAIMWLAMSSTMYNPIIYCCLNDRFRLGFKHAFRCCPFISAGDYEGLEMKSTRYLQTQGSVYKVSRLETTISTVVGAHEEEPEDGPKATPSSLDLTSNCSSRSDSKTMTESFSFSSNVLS
Procedure, shortened: (§2)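 Membranes from cloned human receptors were incubated with compound and radioligand for 1 hour at room temperature. Bound ligand was collected on 0.3% PEI-soaked filters, washed with cold 50 mM Tris-HCl pH 7.4, and counted by scintillation. Percent inhibition was computed against DMSO totals and reference-ligand nonspecific wells.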

Human Melanocortin (MC3) = target: T5, Human Melanocortin (MC3) (Homo sapiens, UniProt P41968); test: Radioligand binding, human melanocortin MC3 membranes, FlashPlate, [125I]-NDP-αMSH; settings: compound at 10 μM; [125I]-NDP-αMSH, human MC3 membranes
T5 construct: purchased Perkin Elmer Biosignal
T5 sequence (P41968 whole entry): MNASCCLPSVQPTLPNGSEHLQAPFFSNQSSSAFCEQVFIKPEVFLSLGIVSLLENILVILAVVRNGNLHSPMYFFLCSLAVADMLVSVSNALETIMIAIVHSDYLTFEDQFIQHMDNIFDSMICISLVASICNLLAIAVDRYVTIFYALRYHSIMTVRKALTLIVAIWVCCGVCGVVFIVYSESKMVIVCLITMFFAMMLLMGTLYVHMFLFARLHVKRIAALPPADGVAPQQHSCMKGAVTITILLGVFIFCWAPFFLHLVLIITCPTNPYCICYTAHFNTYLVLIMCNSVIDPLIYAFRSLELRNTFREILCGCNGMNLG
Procedure, shortened: as §1

Human Melanocortin (MC4) = target: T6, Human Melanocortin (MC4) (Homo sapiens, UniProt P32245); test: Radioligand binding, human melanocortin MC4 membranes, FlashPlate, [125I]-NDP-αMSH; settings: compound at 10 μM; [125I]-NDP-αMSH, human MC4 membranes
T6 construct: purchased Perkin Elmer Biosignal
T6 sequence (P32245 whole entry): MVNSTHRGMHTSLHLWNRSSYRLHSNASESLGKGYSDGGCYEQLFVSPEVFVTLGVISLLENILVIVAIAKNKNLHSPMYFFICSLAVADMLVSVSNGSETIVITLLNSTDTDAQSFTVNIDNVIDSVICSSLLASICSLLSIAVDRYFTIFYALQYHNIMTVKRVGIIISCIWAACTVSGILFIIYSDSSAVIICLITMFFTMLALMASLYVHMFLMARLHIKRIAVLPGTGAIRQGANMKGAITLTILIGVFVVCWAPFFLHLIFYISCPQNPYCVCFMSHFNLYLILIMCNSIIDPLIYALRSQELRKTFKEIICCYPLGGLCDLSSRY
Procedure, shortened: as §1

Human melanocortin (MC5) = target: T7, Human melanocortin (MC5) (Homo sapiens, UniProt P33032); test: Radioligand binding, human melanocortin MC5 membranes, FlashPlate, [125I]-NDP-αMSH; settings: compound at 10 μM; [125I]-NDP-αMSH, human MC5 membranes
T7 construct: purchased Perkin Elmer Biosignal
T7 sequence (P33032 whole entry): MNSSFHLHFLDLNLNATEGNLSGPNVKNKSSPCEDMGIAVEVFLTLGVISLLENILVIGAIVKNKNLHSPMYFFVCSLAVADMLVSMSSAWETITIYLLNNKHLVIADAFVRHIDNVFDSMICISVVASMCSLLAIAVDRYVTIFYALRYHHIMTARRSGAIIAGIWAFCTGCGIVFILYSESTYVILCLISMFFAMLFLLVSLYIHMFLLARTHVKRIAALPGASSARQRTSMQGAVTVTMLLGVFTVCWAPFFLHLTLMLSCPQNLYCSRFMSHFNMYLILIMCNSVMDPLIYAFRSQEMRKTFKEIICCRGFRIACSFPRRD
Procedure, shortened: as §1

[2] = target: T8, Human neuropeptide Y (NPY-Y1) (Homo sapiens, UniProt P25929); test: Radioligand binding, human neuropeptide Y NPY-Y1 membranes, FlashPlate, [125I]-PYY; settings: compound at 10 μM; [125I]-PYY, human NPY-Y1 membranes
T8 construct: purchased Perkin Elmer Biosignal
T8 sequence (P25929 1-384): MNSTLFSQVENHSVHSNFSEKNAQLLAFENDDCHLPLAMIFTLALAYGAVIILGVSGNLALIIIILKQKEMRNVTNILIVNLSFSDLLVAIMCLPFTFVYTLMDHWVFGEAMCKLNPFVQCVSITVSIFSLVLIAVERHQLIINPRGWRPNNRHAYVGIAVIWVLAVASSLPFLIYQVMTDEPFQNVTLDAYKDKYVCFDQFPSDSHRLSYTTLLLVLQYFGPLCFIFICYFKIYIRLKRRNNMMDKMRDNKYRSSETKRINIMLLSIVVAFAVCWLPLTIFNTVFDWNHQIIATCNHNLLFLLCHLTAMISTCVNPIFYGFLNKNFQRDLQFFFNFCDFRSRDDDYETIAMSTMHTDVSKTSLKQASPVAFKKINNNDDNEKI
Procedure, shortened: as §1

Human κ-Opioid (KOP) = target: T9, Human κ-Opioid (KOP) (Homo sapiens, UniProt P41145); test: Radioligand binding, human κ-opioid (KOP) membranes, filtration, [3H]-Diprenorphine; settings: compound at 10 μM; [3H]-Diprenorphine, human KOP membranes
T9 construct: purchased Perkin Elmer Biosignal
T9 sequence (P41145 whole entry): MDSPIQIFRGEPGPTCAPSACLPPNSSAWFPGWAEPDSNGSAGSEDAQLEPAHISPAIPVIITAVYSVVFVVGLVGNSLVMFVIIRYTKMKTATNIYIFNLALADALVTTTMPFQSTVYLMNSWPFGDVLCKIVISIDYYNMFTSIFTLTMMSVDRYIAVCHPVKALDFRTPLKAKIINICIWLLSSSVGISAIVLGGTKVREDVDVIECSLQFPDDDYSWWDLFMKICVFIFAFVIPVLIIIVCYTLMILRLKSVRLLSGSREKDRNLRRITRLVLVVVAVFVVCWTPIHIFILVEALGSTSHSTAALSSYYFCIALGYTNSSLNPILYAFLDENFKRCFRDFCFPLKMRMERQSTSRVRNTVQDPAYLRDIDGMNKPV
Procedure, shortened: as §2

Human opioid (ORL1) = target: T10, Human opioid (ORL1) (Homo sapiens, UniProt P41146); test: Radioligand binding, human opioid ORL1 membranes, FlashPlate, [125I]-Nociceptin; settings: compound at 10 μM; [125I]-Nociceptin, human ORL1 membranes
T10 construct: purchased Perkin Elmer Biosignal
T10 sequence (P41146 whole entry): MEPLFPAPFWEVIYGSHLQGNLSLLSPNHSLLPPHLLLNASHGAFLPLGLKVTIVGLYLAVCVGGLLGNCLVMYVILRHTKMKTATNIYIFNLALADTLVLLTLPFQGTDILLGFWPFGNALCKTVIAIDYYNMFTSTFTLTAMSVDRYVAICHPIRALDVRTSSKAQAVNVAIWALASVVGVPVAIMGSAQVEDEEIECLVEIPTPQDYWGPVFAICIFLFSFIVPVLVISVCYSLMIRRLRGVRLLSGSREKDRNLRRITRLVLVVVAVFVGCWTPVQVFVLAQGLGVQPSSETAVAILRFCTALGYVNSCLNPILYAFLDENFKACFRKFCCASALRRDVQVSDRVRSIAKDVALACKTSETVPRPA
Procedure, shortened: as §1

Mouse urotensin (mUR2) = target: T11, Mouse urotensin (mUR2) (Mus musculus, UniProt Q8VIH9); test: Radioligand binding, mouse urotensin mUR2 membranes, FlashPlate, [125I]-Urotensin II; settings: compound at 10 μM; [125I]-Urotensin II, mouse mUR2 membranes
T11 construct: purchased Perkin Elmer Biosignal
T11 sequence (Q8VIH9 1-385): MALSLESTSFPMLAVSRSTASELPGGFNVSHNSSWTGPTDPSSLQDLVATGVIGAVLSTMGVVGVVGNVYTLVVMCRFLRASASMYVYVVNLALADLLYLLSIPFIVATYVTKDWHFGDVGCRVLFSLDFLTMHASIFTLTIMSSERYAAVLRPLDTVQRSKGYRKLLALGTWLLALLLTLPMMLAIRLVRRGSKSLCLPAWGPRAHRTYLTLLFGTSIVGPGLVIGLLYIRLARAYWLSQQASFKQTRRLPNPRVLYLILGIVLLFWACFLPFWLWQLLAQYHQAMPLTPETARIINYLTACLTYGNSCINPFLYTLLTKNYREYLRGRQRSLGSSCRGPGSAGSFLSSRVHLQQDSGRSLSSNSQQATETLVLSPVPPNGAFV
Procedure, shortened: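 Cloned mouse urotensin (mUR2) receptor membranes from Perkin Elmer Biosignal were immobilized in FlashPlate microplates using a proprietary coating. Each well got 19.5 μl buffer, then 0.5 μl of DMSO, reference ligand, or compound. Adding 5 μl of [125I]-Urotensin II, diluted to 5× final concentration in binding buffer, started binding. Plates were sealed with TopSeal-A and incubated 1 hour at room temperature in the dark. Wells were counted for 30 seconds each on a TopCount after a 60-second delay, and percentage inhibition was calculated.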

T1 sequence (P41143 whole entry): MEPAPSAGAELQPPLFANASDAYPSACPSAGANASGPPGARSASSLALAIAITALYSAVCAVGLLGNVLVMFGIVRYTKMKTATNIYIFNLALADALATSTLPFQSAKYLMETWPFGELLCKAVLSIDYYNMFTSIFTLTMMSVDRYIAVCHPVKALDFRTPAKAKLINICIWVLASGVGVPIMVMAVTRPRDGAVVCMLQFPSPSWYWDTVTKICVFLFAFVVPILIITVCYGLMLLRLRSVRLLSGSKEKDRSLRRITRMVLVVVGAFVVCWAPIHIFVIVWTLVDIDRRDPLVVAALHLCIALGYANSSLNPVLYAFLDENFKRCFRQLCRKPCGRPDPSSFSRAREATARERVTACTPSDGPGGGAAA

SMILES | A1: inhibition of radioligand binding (Human δ-opioid (DOP)) | A7: inhibition of radioligand binding (Human μ-opioid (MOP)) | A6: inhibition of radioligand binding [1] | A8: inhibition of radioligand binding (Human neurokinin (NK1)) | A3: inhibition of radioligand binding (Human Melanocortin (MC3)) | A4: inhibition of radioligand binding (Human Melanocortin (MC4)) | A5: inhibition of radioligand binding (Human melanocortin (MC5)) | A9: inhibition of radioligand binding [2] | A2: inhibition of radioligand binding (Human κ-Opioid (KOP)) | A10: inhibition of radioligand binding (Human opioid (ORL1)) | A11: inhibition of radioligand binding (Mouse urotensin (mUR2))
N=C(N)NCC(=O)NC1C(OCc2ccc(-c3ccccc3)cc2)OC(COCc2ccc3ccccc3c2)C(O)C1OCc1ccc(Cl)cc1 (stereo not shown) [compound 399] | − (“−” indicates less than 50% inhibition at 10 μM) | − (“−” indicates less than 50% inhibition at 10 μM) | − (“−” indicates less than 50% inhibition at 10 μM) | + (“+” indicates greater than 50% inhibition at 10 μM) | + (“+” indicates greater than 50% inhibition at 10 μM) | + (“+” indicates greater than 50% inhibition at 10 μM) | + (“+” indicates greater than 50% inhibition at 10 μM) | − (“−” indicates less than 50% inhibition at 10 μM) | − (“−” indicates less than 50% inhibition at 10 μM) | − (“−” indicates less than 50% inhibition at 10 μM) | − (“−” indicates less than 50% inhibition at 10 μM)
N=C(N)NCC(=O)NC1C(OCc2ccc(-c3ccccc3)cc2)OC(COCc2ccccc2)C(O)C1OCc1ccc(Cl)cc1 (stereo not shown) [compound 400] | − (“−” indicates less than 50% inhibition at 10 μM) | − (“−” indicates less than 50% inhibition at 10 μM) | + (“+” indicates greater than 50% inhibition at 10 μM) | + (“+” indicates greater than 50% inhibition at 10 μM) | + (“+” indicates greater than 50% inhibition at 10 μM) | + (“+” indicates greater than 50% inhibition at 10 μM) | + (“+” indicates greater than 50% inhibition at 10 μM) | − (“−” indicates less than 50% inhibition at 10 μM) | − (“−” indicates less than 50% inhibition at 10 μM) | + (“+” indicates greater than 50% inhibition at 10 μM) | − (“−” indicates less than 50% inhibition at 10 μM)
N=C(N)NCC(=O)NC1C(OCc2ccc(-c3ccccc3)cc2)OC(COCc2ccc(Cl)cc2)C(O)C1OCc1ccc(Cl)cc1 (stereo not shown) [compound 401] | − (“−” indicates less than 50% inhibition at 10 μM) | − (“−” indicates less than 50% inhibition at 10 μM) | + (“+” indicates greater than 50% inhibition at 10 μM) | + (“+” indicates greater than 50% inhibition at 10 μM) | + (“+” indicates greater than 50% inhibition at 10 μM) | + (“+” indicates greater than 50% inhibition at 10 μM) | + (“+” indicates greater than 50% inhibition at 10 μM) | − (“−” indicates less than 50% inhibition at 10 μM) | − (“−” indicates less than 50% inhibition at 10 μM) | + (“+” indicates greater than 50% inhibition at 10 μM) | − (“−” indicates less than 50% inhibition at 10 μM)
N=C(N)NCC(=O)NC1C(OCc2ccc(-c3ccccc3)cc2)OC(COCc2ccc3ccccc3c2)C(O)C1OCc1ccc2ccccc2c1 (stereo not shown) [compound 402] | − (“−” indicates less than 50% inhibition at 10 μM) | − (“−” indicates less than 50% inhibition at 10 μM) | + (“+” indicates greater than 50% inhibition at 10 μM) | + (“+” indicates greater than 50% inhibition at 10 μM) | + (“+” indicates greater than 50% inhibition at 10 μM) | + (“+” indicates greater than 50% inhibition at 10 μM) | + (“+” indicates greater than 50% inhibition at 10 μM) | − (“−” indicates less than 50% inhibition at 10 μM) | − (“−” indicates less than 50% inhibition at 10 μM) | + (“+” indicates greater than 50% inhibition at 10 μM) | − (“−” indicates less than 50% inhibition at 10 μM)
N=C(N)NCC(=O)NC1C(OCc2ccc(-c3ccccc3)cc2)OC(COCc2ccccc2)C(O)C1OCc1ccc2ccccc2c1 (stereo not shown) [compound 403] | − (“−” indicates less than 50% inhibition at 10 μM) | − (“−” indicates less than 50% inhibition at 10 μM) | + (“+” indicates greater than 50% inhibition at 10 μM) | + (“+” indicates greater than 50% inhibition at 10 μM) | + (“+” indicates greater than 50% inhibition at 10 μM) | + (“+” indicates greater than 50% inhibition at 10 μM) | + (“+” indicates greater than 50% inhibition at 10 μM) | − (“−” indicates less than 50% inhibition at 10 μM) | − (“−” indicates less than 50% inhibition at 10 μM) | + (“+” indicates greater than 50% inhibition at 10 μM) | − (“−” indicates less than 50% inhibition at 10 μM)
